# Measured values published in patent US20140275122A1, “Voriconazole Formulations” (Fresenius Kabi USA, LLC, priority 2013, published 2014).
# Key:
# [1] = Storage stability of lyophilized voriconazole compositions, total impurities by HPLC after reconstitution; assay type: physicochemical
# Description: Lyophilized compositions were formed by dissolving the excipient (SBECD or HPCD) in water and adjusting the pH of the resulting excipient solution. Voriconazole (200 mg) was added to the excipient solution, and the pH of the resulting lyophilization solution was adjusted as necessary. The lyophilization solutions were then filtered and lyophilized to form solid compositions. The lyophilization procedure was adjusted as need for each type of composition; however, the general procedure included reducing the temperature of the lyophilization solutions to −45° C., performing a primary drying at a temperature of from −35 to −15° C. and under a vacuum of from 50-200 milliTorr (mTorr), and performing a secondary drying at a temperature of 40° C. To ensure the lowest initial impurities possible, the solutions for lyophilization were prepared at low temperature, using a nitrogen blanket and purging.
# Each composition was sealed in a 5 mL vial with a 13 mm rubber stopper (STELMI 6720GC; American Stelmi Corporation, Princeton, N.J.) and stored at 25° C., 40° C. or 55° C. (all temperatures ±2° C.). After storage for 4 or 8 weeks at 25° C., for 4, 8 or 12 weeks at 40° C., or for 2 or 4 weeks at 55° C., a portion of the vials were reconstituted with 19 mL of water for injection. The reconstituted liquids were analyzed by HPLC to determine the concentrations of voriconazole and of any impurities. For comparison, a portion of each composition was reconstituted at the beginning of the storage time (time=0 weeks) with 19 mL of water for injection, and analyzed by HPLC for voriconazole and impurity concentrations.
# Solutions comprising HPCD and voriconazole were prepared as described in Example 1, except that the pH of the solution prior to lyophilization was adjusted to 5.18, 5.5, 6.0, 6.5, or 7.0. The lyophilized compositions were formed and then analyzed for the stability of voriconazole over time at 40° C. or 55° C., as described above with regard to Table 1. Table 2 lists the results of stability analyses of lyophilized compositions containing voriconazole in combination with HPCD, where the compositions had different pH values prior to lyophilization.
# (§1) The lyophilized compositions were formed and then analyzed for voriconazole stability over time at 40° C. and 55° C., as described above with regard to Table 1. Table 3 lists the results of stability analyses of lyophilized compositions containing voriconazole in combination with HPCD, where the compositions further included one of the amino acids arginine, aspartic acid or glycine.
# as §1, with “3.” for “1.”, “4” for “3”, “lysine, histidine, asparagine, glutamine” for “arginine, aspartic acid”, “threonine.” for “glycine.”
# The effects of pH prior to lyophilization were analyzed for the formulations that included lactose. The lyophilized compositions were formed and then analyzed for voriconazole stability over time at 40° C. and 55° C., as described above with regard to Table 3. […]
# The pH prior to lyophilization was adjusted to 6.2 with HCl/NaOH. The lyophilized compositions were formed and then analyzed for voriconazole stability over time at 40° C. and 55° C., as described above with regard to Table 3. […]
# [2] = aqueous liquid having a pH of 3; cited from earlier work
smiles,measurement,setting,value
"C[C@@H](c1ncncc1F)[C@](O)(Cn1cncn1)c1ccc(F)cc1F [voriconazole, (2R,3S)-2-(2,4-difluorophenyl)-3-(5-fluoro-4-pyrimidinyl)-1-(1H-1,2,4-triazol-1-yl)-2-butanol]",Total impurities (%),"[1]; lyophilized solid stored at 40 °C, 4 weeks",0.70%
same,Total impurities (%),"[1]; lyophilized solid stored at 40 °C, 8 weeks",0.34%
same,Total impurities (%),"[1]; lyophilized solid stored at 40 °C, 12 weeks",0.43%
same,Total impurities (%),"[1]; lyophilized solid stored at 55 °C, 2 weeks",0.58%
same,Total impurities (%),"[1]; lyophilized solid, time 0 weeks (reconstituted at beginning of storage)",0.18%
same,solubility of voriconazole,[2],2 mg/mL
